pKi: −log10 of the molar value. Read-outs that look alike come from different tables or passages of the source.
What was measured:
[1] = biological target: Human α2δ-1 subunit of Cav2.2 calcium channel (Homo sapiens, UniProt P54289); assay: Human α2δ-1 subunit of Cav2.2 calcium channel assay ([3H]-Gabapentin binding)
Procedure: Human α2δ-1 Subunit of Cav2.2 Calcium Channel Assay
Human α2δ-1 enriched membranes (2.5 μg) were incubated with 15 nM of radiolabeled [3H]-Gabapentin in assay buffer containing Hepes-KOH 10 mM, pH 7.4. NSB (non specific binding) was measured by adding 10 μM pregabalin. After 60 min incubation at 27° C., binding reaction was terminated by filtering through Multiscreen GF/C (Millipore) presoaked in 0.5% polyethyleneimine in Vacuum Manifold Station, followed by 3 washes with ice-cold filtration buffer containing 50 mM Tris-HCl, pH 7.4. Filter plates were dried at 60° C. for 1 hour and 30 μl of scintillation cocktail were added to each well before radioactivity reading. Readings were performed in a Trilux 1450 Microbeta radioactive counter (Perkin Elmer).

human μ-opioid receptor = biological target: T1, human μ-opioid receptor (Homo sapiens, UniProt P35372); assay: Human μ-opioid receptor radioligand assay ([3H]-DAMGO); assay type: binding
T1 construct: expressed in transfected cells; host or cells: CHO-K1
Procedure: Human μ-Opioid Receptor Radioligand Assay
To investigate binding properties of test compounds to human μ-opioid receptor, transfected CHO-K1 cell membranes and [^3H]-DAMGO (Perkin Elmer, ES-542-C), as the radioligand, were used. The assay was carried out with 20 μg of membrane suspension, 1 nM of [^3H]-DAMGO in either absence or presence of either buffer or 10 μM Naloxone for total and non-specific binding, respectively. Binding buffer contained Tris-HCl 50 mM, MgCl2 5 mM at pH 7.4. Plates were incubated at 27° C. for 60 minutes. After the incubation period, the reaction mix was then transferred to MultiScreen HTS, FC plates (Millipore), filtered and plates were washed 3 times with ice-cold 10 mM Tris-HCL (pH 7.4). Filters were dried and counted at approximately 40% efficiency in a MicroBeta scintillation counter (Perkin-Elmer) using EcoScint liquid scintillation cocktail.

[2] = human α2δ-1 enriched membranes, 15 nM [3H]-Gabapentin, read-out: α2δ-1 binding
[3] = transfected CHO-K1 cell membranes, 1 nM [3H]-DAMGO, read-out: μ binding

T1 sequence (P35372 whole entry): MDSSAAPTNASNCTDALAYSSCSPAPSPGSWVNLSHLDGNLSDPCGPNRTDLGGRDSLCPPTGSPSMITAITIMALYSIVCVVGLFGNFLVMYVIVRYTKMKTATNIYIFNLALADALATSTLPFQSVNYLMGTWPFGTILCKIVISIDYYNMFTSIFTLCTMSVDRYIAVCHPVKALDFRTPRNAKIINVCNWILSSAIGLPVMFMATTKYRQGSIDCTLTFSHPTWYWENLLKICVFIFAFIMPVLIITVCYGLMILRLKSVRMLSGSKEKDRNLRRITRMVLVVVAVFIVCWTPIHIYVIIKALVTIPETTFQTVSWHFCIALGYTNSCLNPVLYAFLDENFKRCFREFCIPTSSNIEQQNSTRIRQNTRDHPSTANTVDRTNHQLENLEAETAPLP
Human α2δ-1 subunit of Cav2.2 calcium channel, sequence (P54289 25-1103): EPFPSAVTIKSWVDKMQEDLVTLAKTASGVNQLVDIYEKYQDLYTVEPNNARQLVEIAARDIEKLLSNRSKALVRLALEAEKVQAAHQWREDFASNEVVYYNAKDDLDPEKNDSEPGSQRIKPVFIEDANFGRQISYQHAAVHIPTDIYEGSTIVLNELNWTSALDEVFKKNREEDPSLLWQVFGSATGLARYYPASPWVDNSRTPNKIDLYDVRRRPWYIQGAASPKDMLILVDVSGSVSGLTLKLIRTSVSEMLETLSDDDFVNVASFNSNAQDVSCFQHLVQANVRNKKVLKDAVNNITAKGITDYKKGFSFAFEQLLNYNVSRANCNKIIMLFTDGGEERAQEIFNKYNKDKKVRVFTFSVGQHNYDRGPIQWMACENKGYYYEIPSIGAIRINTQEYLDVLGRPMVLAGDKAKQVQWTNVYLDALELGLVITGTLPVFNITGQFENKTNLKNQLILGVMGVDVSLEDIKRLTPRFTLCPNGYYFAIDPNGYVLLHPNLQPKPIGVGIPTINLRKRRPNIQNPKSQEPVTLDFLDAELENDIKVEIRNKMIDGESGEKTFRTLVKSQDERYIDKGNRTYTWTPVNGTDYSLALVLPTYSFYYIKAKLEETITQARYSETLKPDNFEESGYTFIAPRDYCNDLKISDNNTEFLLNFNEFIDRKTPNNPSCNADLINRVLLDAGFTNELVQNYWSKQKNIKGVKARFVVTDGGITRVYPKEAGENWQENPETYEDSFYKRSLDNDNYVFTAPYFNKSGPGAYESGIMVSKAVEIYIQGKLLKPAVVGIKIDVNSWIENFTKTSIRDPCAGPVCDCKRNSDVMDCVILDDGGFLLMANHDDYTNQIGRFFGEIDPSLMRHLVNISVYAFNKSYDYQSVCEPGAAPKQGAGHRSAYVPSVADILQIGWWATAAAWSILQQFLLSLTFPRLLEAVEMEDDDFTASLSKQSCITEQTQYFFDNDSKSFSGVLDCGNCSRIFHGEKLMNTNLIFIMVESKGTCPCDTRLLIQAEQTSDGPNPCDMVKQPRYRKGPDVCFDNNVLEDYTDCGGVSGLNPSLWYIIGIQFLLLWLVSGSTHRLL

Row | Compound | pKi [1, 2] | pKi (human μ-opioid receptor; [3]) | pKi [1] | pKi (human μ-opioid receptor)
1 | CC(N)c1cc(Cc2ccc(O)c(F)c2)n(-c2ccc(Cl)cc2Cl)n1 (stereo in doubt) [Example 63, (S)-4-{[3-(1-Aminoethyl)-1-(2,4-dichlorophenyl)-1H-pyrazol-5-yl]methyl}-2-fluorophenol] | – | – | < 5.30 | < 6.30
2 | CC(N)c1cc(Cc2ccc(O)c(F)c2)n(-c2ccc(Cl)cc2Cl)n1 (stereo in doubt) [Example 64, (R)-4-{[3-(1-Aminoethyl)-1-(2,4-dichlorophenyl)-1H-pyrazol-5-yl]methyl}-2-fluorophenol] | – | – | < 5.30 | < 6.30
3 | COc1ccc(Cc2cc(CN)nn2-c2ccc(Cl)cc2Cl)cc1 [Example 1, [1-(2,4-Dichlorophenyl)-5-(4-methoxybenzyl)-1H-pyrazol-3yl]methanamine] | – | – | > 6.30 | 6.30 to 7.00
4 | COc1ccc(Cc2cc(CN)nn2-c2ccc(OC)cc2Cl)cc1 [Example 4, [1-(2-Chloro-4-methoxyphenyl)-5-(4-methoxybenzyl)-1H-pyrazol-3-yl]methanamine] | – | – | 5.52 to 6.30 | 6.30 to 7.00
5 | COc1ccc(Cc2cc(CN)nn2-c2ccc(F)cc2Cl)cc1 [Example 5, [1-(2-Chloro-4-fluorophenyl)-5-(4-methoxybenzyl)-1H-pyrazol-3-yl]methanamine] | 5.52 to 6.30 | < 6.30 | – | –
6 | CCOc1ccc(-n2nc(CN)cc2Cc2ccc(O)cc2)c(Cl)c1 [Example 7, 4-{[3-(Aminomethyl)-1-(2-chloro-4-ethoxyphenyl)-1H-pyrazol-5-yl]methyl}phenol] | – | – | 5.52 to 6.30 | > 7.00
7 | COc1cccc(Cc2cc(CN)nn2-c2ccc(Cl)cc2Cl)c1 [Example 8, [1-(2,4-Dichlorophenyl)-5-(3-methoxybenzyl)-1H-pyrazol-3-yl]methanamine] | 5.52 to 6.30 | < 6.30 | – | –
8 | NCc1cc(Cc2ccccc2)n(-c2ccc(Cl)cc2Cl)n1 [Example 9, [5-Benzyl-1-(2,4-dichlorophenyl)-1H-pyrazol-3-yl]methanamine] | 5.52 to 6.30 | < 6.30 | – | –
9 | COc1ccc(-n2nc(CN)cc2Cc2ccccc2)cc1 [Example 10, [5-Benzyl-1-(4-methoxyphenyl)-1H-pyrazol-3-yl]methanamine] | 5.52 to 6.30 | < 6.30 | – | –

Continued, in another order:

Row | pKi [1, 2] | pKi (human μ-opioid receptor; [3]) | Compound | pKi [1] | pKi (human μ-opioid receptor)
10 | 5.52 to 6.30 | < 6.30 | COc1ccc(Cc2cc(CN)nn2-c2ccccc2Cl)cc1 [Example 2, [1-(2-Chlorophenyl)-5-(4-methoxybenzyl)-1H-pyrazol-3-yl]methanamine] | – | –
11 | 5.30 to 5.52 | < 6.30 | COc1ccc(Cc2cc(CN)nn2-c2ccc(Cl)cc2)cc1 [Example 3, [1-(4-Chlorophenyl)-5-(4-methoxybenzyl)-1H-pyrazol-3-yl]methanamine] | – | –
12 | 5.30 to 5.52 | < 6.30 | COc1ccc(-n2nc(CN)cc2Cc2ccc(O)cc2)cc1 [Example 6, 4-{[3-(Aminomethyl)-1-(4-methoxyphenyl)-1H-pyrazol-5-yl]methyl}phenol] | – | –
13 | 5.52 to 6.30 | < 6.30 | COc1ccc(Cc2cc(CN)nn2CC(C)C)cc1 [Example 11, [1-Isobutyl-5-(4-methoxybenzyl)-1H-pyrazol-3-yl]methanamine] | – | –
14 | 5.52 to 6.30 | < 6.30 | COc1ccc(Cc2cc(CN)nn2Cc2ccc(Cl)cc2)cc1 [Example 12, [1-(4-Chlorobenzyl)-5-(4-methoxybenzyl)-1H-pyrazol-3-yl]methanamine] | – | –
15 | 5.52 to 6.30 | < 6.30 | COc1ccc(Cc2cc(CN)nn2Cc2ccccc2)cc1 [Example 13, [1-Benzyl-5-(4-methoxybenzyl)-1H-pyrazol-3-yl]methanamine] | – | –
16 | 5.52 to 6.30 | < 6.30 | COc1ccc(Cc2cc(CN)nn2Cc2ccccc2Cl)cc1 [Example 14, [1-(2-Chlorobenzyl)-5-(4-methoxybenzyl)-1H-pyrazol-3-yl]methanamine] | – | –
17 | 5.52 to 6.30 | < 6.30 | COc1ccc(Cc2cc(CN)nn2Cc2ccc(Cl)cc2Cl)cc1 [Example 15, [1-(2,4-Dichlorobenzyl)-5-(4-methoxybenzyl)-1H-pyrazol-3-yl]methanamine] | – | –

Reference: patent US20200002283A1, “PYRAZOLE DERIVATIVES HAVING ACTIVITY AGAINST PAIN” (priority 2016, published 2020)
